For one test, the target named is T1, R14C mutant of HγD (Homo sapiens, UniProt P07320, R15C).
T1 construct: made in house; host or cells: E. coli BL21(DE3) pLysS
T1 sequence (P07320 1-174 R15C): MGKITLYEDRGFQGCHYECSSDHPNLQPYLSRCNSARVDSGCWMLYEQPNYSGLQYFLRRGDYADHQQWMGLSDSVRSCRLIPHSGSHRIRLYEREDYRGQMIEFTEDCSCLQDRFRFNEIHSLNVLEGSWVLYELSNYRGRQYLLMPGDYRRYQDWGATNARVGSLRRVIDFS
The test is described as follows: End-point turbidity assay (72 °C, 20 min) of R14C mutant. The format is biochemical. Particulars: 500 μM drug, 5 mM DTT, read-out: Inhibition of aggregation (%) R14C. As for the experimental part:
Aggregation kinetics assays at 600 nm in the presence of varying concentrations (0, 100, 200, 300, 400, and 500 μM) of our selected drugs were also performed on mutants of HγD (W43R, W42Q, R14C, and R58H) and MγS (F9S) at a concentration of 1 mg/ml in 50 mM K3PO4 buffer (pH 7.2) in a total volume of 100 μl. WT-HγD and WT-MγS crystallin served as controls for their respective mutant versions. For W43R mutant, aggregation assay was done at 42 °C for a total of 200 min. Absorbance was monitored every 10 min. For R14C and R58H mutants, end-point turbidity assay was done at 72 °C for 20 min. […] All the experiments were run in duplicates or triplicates.

In the next test the target is T2, HγD (Homo sapiens, UniProt P07320).
T2 construct: made in house; host or cells: E. coli BL21(DE3) pLysS, pET3d vector
T2 sequence (P07320 1-174): T1 sequence (P07320 1-174 R15C) with C15R
The test is described as follows: Steady-state tryptophan fluorescence quenching, HγD. The format is binding. The method, then: Tryptophan fluorescence can be used for studying conformational changes resulting from protein–drug interactions ([44]). Fluorescence quenching of aromatic fluorophores in HγD and MγS by drugs C and G at three different temperatures (25, 30, and 37 °C) was studied in the presence of varying concentrations of drug C and G (0–250 μM). As shown in Figs. S5A and S6A, both HγD and MγS have a strong emission peak at 330 nm when excited at 295 nm. In both cases, quenching occurs with gradual addition of C and G at all three temperatures. Overall, quenching of Trp fluorescence emission is at highest at 25 °C (Figs. S5A and S6A) followed by 30 °C and lowest at 37 °C. […] The slope of plot Fo/F versus [Q] gives Ksv (Figs. S5B and S6B), whereas Kb is obtained from intercept of plot log (Fo/F − 1) versus log[Q] (Figs. S5C and S6C). […] For drug M, Kb values are of the order 10^2 M^−1 only. Fluorescence quenching can be either because of random collision between the molecules (dynamic interaction) or because of actual affinity between a protein pocket and drug (static interaction). Dynamic interactions are weaker and nonspecific in nature, whereas static interactions are stronger and more specific ([47]). For more information on the type of interaction, Kq was calculated and compared with the standard value of 2 × 10^10 M^−1s^−1, which is the maximum scatter collision quenching constant of various quenchers with biopolymers ([48]). […] Furthermore, the differential response of Ksv toward temperature change also clarifies the type of quenching. In static quenching, Ksv decreases with an increase in temperature because of the formation of complex with protein, which undergoes dissociation on increasing temperature.
To gauge the strength of the major forces involved in drug–protein complex formation, change in free energy was calculated using Gibbs–Helmholtz equation (Equation 3).(3) ΔG=-RTlnKb ([50]) where, R is gas constant and its value is […], T is absolute temperature (Kelvin) and Kb is binding constant whose value is already calculated using Equation 2. […] Free energy changes are negative at all three temperatures, being maximal at 25 °C. For C, G, and M interaction with HγD, ΔG values were −6.4, −7.9, and −1.9 kcal/mol (at 25 °C), that is, similar to those obtained by molecular docking as described later. These values also reflect the fact that drug M had the least protective effect on unfolding or aggregation of various γ-crystallins (Figs. 2 and S4).
All the steady-state fluorescence measurements were recorded on Fluoromax Spectrofluorometer (Horiba Scientific). For fluorescence quenching measurements, 10 μM of both HγD and MγS crystallins were titrated with varying concentrations of drugs C, G, and M (0–250 μM) at 25, 30, and 37 °C. These samples were excited at 295 nm, and the fluorescence emission was collected from 310 to 410 nm.

A further test concerns the target T3, HγD-ox (Homo sapiens, UniProt P07320).
T3 construct: made in house; host or cells: Escherichia coli BL21(DE3) pLysS, pET3d vector
T3 sequence (P07320 1-174): T1 sequence (P07320 1-174 R15C) with C15R
The experiment in a line: Thermal unfolding (Tm) of oxidized HγD. The format is biochemical. Particulars: 100 μM agent, 360/320 nm ratio; 68 ± 0.07 °C without agent. The source says: In postsubmission experiments, we attempted to find mechanistic clues relevant to the use of an H2O2 oxidation step prior to the thermal stress used during the initial drug screen. For this reason, we did a comparative study of oxidized (HγD-ox) versus native HγD (HyD-nat), hypothesizing that bis-ANS would both act like the drugs and provide information on the role of exposed hydrophobicity ([40]). HγD was oxidized in diethylenetriaminepentaacetic acid […] phosphate buffer to facilitate hydroxyl radical formation and protein damage, followed by dialysis against DTPA-treated buffer to eliminate the known proaggregating effects of divalent metals ([32]) in the subsequent steps. […] Overall protective effects were more pronounced for the oxidized than nonoxidized form of HγD. […] In the hope to obtain clues on the impact of bis-ANS, drugs C, G, and M on protein aggregation status, native PAGE was performed (Fig. 3G). Polymers greater than 250 kD are present in unheated HγD-nat but only the size of 75 to 100 kD in HγD-ox. […] Other techniques will be needed to assess the relationship between drugs and aggregate size.
Thermal denaturation study was monitored using fluorescence spectroscopy. Protein solutions (10 μM) in the presence and absence of drugs or bis-ANS (100 μM) were heated continuously from 30 to 95 °C, and the fluorescence data were collected every 5 °C after 1 min equilibration at the given temperature. Unfolding data were fit to Greene and Pace’s two-state model ([82]) using GraphPad Prism software (GraphPad Software, Inc).

Consider three compounds from PMC9525908, “α-Crystallin chaperone mimetic drugs inhibit lens γ-crystallin aggregation: Potential role for cataract prevention” (The Journal of Biological Chemistry, 2022).

Changes are numbered by the printed parent chain.

A word on the inhibition: it is the change of the read-out against control, counted positive when it falls. With `O=C(O)CCCCCCCCCCCC[C@@H]1C=CCC1` [drug M, Chaulmoogric acid], at R14C mutant of HγD, the inhibition at 500 µM came out at 18%. Further, the KSV is on record as 0.288 M^−1 ×10^3 at HγD (25 °C), 0.507 M^−1 ×10^3 at HγD (30 °C) and 0.680 M^−1 ×10^3 on HγD (37 °C). In addition, the Kq on HγD (25 °C) is 0.051 M^−1 s^−1 ×10^12; on HγD (30 °C) it was 0.08 M^−1 s^−1 ×10^12. Further, the ΔG at HγD (25 °C) is −1.9 kcalM^−1; on HγD (30 °C), −2.5 kcalM^−1; at HγD (37 °C), −2.6 kcalM^−1; on HγD (at 25 °C), -1.9 kcal/mol.
In the case of `CC(C)=CCC[C@]1(C)C=Cc2c(O)c3c(c(CC=C(C)C)c2O1)O[C@]12C(=C[C@@H]4C[C@H]1C(C)(C)O[C@@]2(C/C=C(/C)C(=O)O)C4=O)C3=O` [drug G, Gambogic acid], the inhibition at 500 µM on R14C mutant of HγD turned out to be 55%. Moreover, the KSV on HγD (25 °C) is reported as 10.252 M^−1 ×10^3; on HγD (30 °C), 8.440 M^−1 ×10^3; at HγD (37 °C), 7.880 M^−1 ×10^3. For the same compound, the Kq on HγD (25 °C) was determined as 1.79 M^−1 s^−1 ×10^12; on HγD (30 °C) it was 1.47 M^−1 s^−1 ×10^12; on HγD (37 °C), 1.38 M^−1 s^−1 ×10^12. Further, the ΔG on HγD (25 °C) was −7.9 kcalM^−1; on HγD (30 °C), −7.7 kcalM^−1; at HγD (37 °C), −7.2 kcalM^−1; at HγD (at 25 °C) it was -7.9 kcal/mol. For the same compound, at HγD-ox, the “Tm of HγD-ox” value is given as “increased all Tm values to the maximum value”.
With `Cc1cc(C(C#N)c2ccc(Cl)cc2)c(Cl)cc1NC(=O)c1cc(I)cc(I)c1O` (stereo not shown) [drug C, Closantel], the inhibition at 500 µM on R14C mutant of HγD turned out to be 68%. Also, the KSV on HγD (25 °C) is 4.215 M^−1 ×10^3; on HγD (30 °C), 4.197 M^−1 ×10^3; on HγD (37 °C), 4.107 M^−1 ×10^3. Further, the Kq at HγD (25 °C) was 0.739 M^−1 s^−1 ×10^12; at HγD (30 °C), 0.736 M^−1 s^−1 ×10^12; at HγD (37 °C), 0.72 M^−1 s^−1 ×10^12. For the same compound, the ΔG on HγD (25 °C) is −6.4 kcalM^−1; on HγD (30 °C), −6.2 kcalM^−1; at HγD (37 °C) it was −5.9 kcalM^−1; on HγD (at 25 °C), -6.4 kcal/mol. Moreover, at HγD-ox, the “Tm of HγD-ox” value is “increased all Tm values to the maximum value”.
